Here are results for 1 molecule from patent EP0147851B1, “Water soluble forms of polyene antibiotics, and process for preparing them” (priority 1983, dated 1985).

Read-outs that look alike come from different tables or passages of the source.

One data set has as its system Candida albicans. Briefly: Biological potency of Nystatin, agar diffusion method. The data set is classed as cell-based. The source says:
Die vorhergehenden Beispiele beweisen, daß die Polyenantibiotika mit γ-Cyclodextrin Einschlußkomplexe bilden und dadurch ihre Stabilität und Wasserlöslichkeit bedeutend steigt. Entscheidend ist jedoch, ob auch die antifungale Wirkung geblieben ist. Um diese Frage zu beantworten, wurde die antifungale Wirkung der auf unterschiedliche Weise hergestellten Komplexe sowohl sofort nach der Herstellung wie auch nach Lagerung unter Bedingungen, unter denen der nicht durch Komplexbildung geschützte Wirkstoff bereits beträchtliche Aktivitätseinbußen erleidet, untersucht. • a) Flavofungin-γ-Cyclodextrin-Komplex Die antifungale Wirkung der wäßrigen Lösung dieses Komplexes wurde an 6 Spaltpilzen und 13 Fadenpilzen untersucht. Die Ergebnisse sind in der Tabelle 7 zusammengefaßt. Auf Flavofungin bezogen war die minimale Hemmkonzentration in jedem Falle 10-25 µg/ml, was der Wirksamkeit des nicht komplexgebundenen Wirkstoffes entspricht. Es ist besonders bemerkenswert, daß die Substanz auch gegen phytopathogene Fusarien wirkt, d.h. eine Anwendung gegen pilzliche Pflanzenschädlinge begründet ist. Der komplexgebundene Wirkstoff wirkt in der gleichen Konzentration wie Flavofungin. Die Untersuchungenwurden mit der Agardiffusionsmethode vorgenommen. Der Komplex hat den Vorteil, daß zum Bereiten der Lösungen keine organischen Lösungsmittel (DMF bzw. DMSO) erforderlich sind. […]
(In general: In agar diffusion tests the substance spreads into inoculated agar from a disc or well.)

The subject of data set [1] is aus menschlichem Blut hergestellten Suspensionen roter Blutkörperchen. The following applies: literature value; cited from earlier work.
For the next data set, the system named is Weibliche CFY-Ratten. Description: Mortality after subcutaneous administration in rats. The data set is classed as in vivo. To be noted: subcutan, 150 mg/kg, observation one week. The text has this:
(§1) • a) Die Resorption von Nystatin aus per os verabreichtem Nystatin-γ-CD-Komplex Die Resorption des Wirkstoffes wurde an Mäusen, an einem durch intravenöse Applikation einer Suspension von Candida albicans hervorgerufenen Sepsismodell untersucht. Die Sepsis verursachte innerhalb von 2-3 Tagen 100 %ige Mortalität. Den Versuchstieren wurde per os gemäß Beispiel 3 hergestellte, 8 % Nystatin enthaltende Komplex verabreicht. In einem Parallelversuch wurde Nystatin intravenös appliziert. Für beide Gruppen wurde die auf die unbehandelte Kontrolle bezogene Verlängerung der Überlebensdauer ermittelt. [formula] Wenn man diejenigen in Form des Komplexes per os verabreichten Nystatindosen mit denjenigen i.v. applizierten Nystatindosen vergleicht, die eine etwa gleiche Verlängerung der Überlebensdauer bewirkten (Tabelle 9, letzte Spalte),so läßt sich errechnen, daß aus dem Komplex durchschnittlich 6,2 % des Wirkstoffes in die Blutbahn gelangten. Bei den höchsten Dosen (i.v. 1,56 mg/kg, p.o. 25 mg/kg) ist das Zurückfallen der Überlebensdauer bereits auf die schwache Toxizität des Nystatins zurückzuführen. • b) Die Resorption von Nystatin aus subcutan appliziertem Nystatin-γ-CD-Komplex Weibliche CFY-Ratten eines durchschnittlichen Gewichtes von 180 g wurden mit Nystatin, mit Nystatin-γ-CD-Komplex (Wirkstoffgehalt9 8 %) beziehungsweise mit γ-CD behandelt. […]

Data set [2] is described as follows: Solubility of Nystatin in aqueous γ-CD solutions (spectrophotometric). The data set is classed as physicochemical. To be noted: for Nystatinkonzentration: 37 °C, 10 min schütteln. The method, then:
Ähnlich wie im Falle des Flavofungins wurde auch für Nystatin die Löslichkeit in γ-CD-Lösungen unterschiedlicher Konzentration ermittelt. Die verwendeten wäßrigen γ-CD-Lösungen hatten Konzentrationen von 0, 1, 2,5, 4, 5, 6, 7, 8, 9, 10 und 15 %. Pro ml wurden 20 mg Nystatin zu gesetzt. Die Lösungen wurden bei 37 °C 10 Minuten lang geschüttelt, dann wurde ihr Nystatingehalt spektrophotometrisch bestimmt. Ähnlich wie bei Flavofungin wurde gefunden, daß die Löslichkeit des Nystatins in wäßrigen γ-CD-Lösungen ansteigt und in 5 %iger γ-CD-Lösung etwa das 25fache, in 10 %iger γ-CD-Lösung etwa das 40fache der ursprünglichen Wasserlöslichkeit beträgt. Die Meßergebnisse sind in der Tabelle 2 zusammengestellt.
Die aus dem anfänglich linearen Abschnitt der bei 37 °C aufgenommen Löslichkeitsisotherme berechnete scheinbare Stabilitätskonstante des Komplexes beträgt etwa 500.

The nature of data set [3]: Blood level after subcutaneous administration (UV spectrum of serum). The following applies: subcutan, 200 mg/kg. The data set is classed as in vivo, CFY-Ratten.
Description: as §1

The conditions of data set [4]: per os; cited from earlier work.

`C[C@@H]1[C@H](O)[C@@H](C)/C=C/C=C/CC/C=C/C=C/C=C/C=C/C(O[C@H]2O[C@H](C)[C@@H](O)[C@H](N)[C@@H]2O)CC2O[C@](O)(CC(O)C(O)CCC(O)CC(O)CC(O)CC(=O)O[C@H]1C)CC(O)C2C(=O)O` (stereo partly shown) [Nystatin]: the “biologische Aktivität” value with Candida albicans came out at 5033 E/mg. Besides, the “biologische Aktivität after treatment without γ-CD” value with Candida albicans (base substance treated as in Beispiel 5 (40 °C, 24 Stunden in water, lyophilised) without γ-CD) was “wesentlich schlechter”. For the same molecule, the “EH₅₀ (concentration for 50 % haemolysis)” value in data set [1] was 50 µg/mL. Also, the “Mortalität (animals that died)” value in the data set with Weibliche CFY-Ratten was “kein einziges”. Besides, the figures for the “Löslichkeit relative to ursprüngliche Wasserlöslichkeit” value in data set [2] (5 %ige γ-CD-Lösung) and in data set [2] (10 %ige γ-CD-Lösung) were about 25 fache and about 40 fache, respectively. Besides, the Nystatinkonzentration in data set [2] (γ-CD-Konzentration 0 %) is 0,20 mg/ml; in data set [2] (γ-CD-Konzentration 1 %), 1,30 mg/ml; in data set [2] (γ-CD-Konzentration 2,5 %) it was 2,36 mg/ml; in data set [2] (γ-CD-Konzentration 4 %), 3,95 mg/ml; in data set [2] (γ-CD-Konzentration 5 %), 4,70 mg/ml; in data set [2] (γ-CD-Konzentration 6 %), 5,50 mg/ml. Moreover, the Nystatinkonzentration in data set [2] (γ-CD-Konzentration 7 %) is given as 6,30 mg/ml; in data set [2] (γ-CD-Konzentration 8 %) it was 7,20 mg/ml; in data set [2] (γ-CD-Konzentration 9 %) it was 8,10 mg/ml; in data set [2] (γ-CD-Konzentration 10 %), 8,95 mg/ml; in data set [2] (γ-CD-Konzentration 15 %) it was 8,20 mg/ml. Further, the figures for the Blutspiegel entry in data set [3] and in data set [4] were “nichts nachzuweisen” and “überhaupt nicht meßbar”, respectively.
